Measured values taken from US20240100164A1, “REPEATED PHOTODYNAMIC THERAPY USING PHOTOSENSITIZING AGENT” (Incando Therapeutics Pte. Ltd., priority 2022, published 2024).
“And” between values parts separate entries of the source, which are not always exact repeats. Equal entries are not always repeated.

Legend:
[1] = test system: C6 glioma; experiment: Orthotopic C6 glioma xenograft, 5-ALA uptake and conversion to PPIX in tumor; format: in vivo, Sprague Dawley rat; details: C6 tumor in rat striatum, histology
Procedure: C6 rat glioma cells were maintained in F12K medium (F-12K Nutrient Mixture, 1X, Gibco) supplemented with […] (Biowest), […] (Gibco), and 1% each of P/S and L/G antibiotics (Biowest) at 37° C. in a humidified incubator containing 5% CO2. Subconfluent, low passage C6 glioma cells were resuspended to single cell suspension in sterile PBS (1X, Hyclone) within two hours of xenotransplantation.
Approximately 2×10^5 cells were stereotactically injected into the striatum of rats (230-270 g, InVivos Pte Ltd) under general anaesthesia. Using a hand-held drill, a burr hole of 1 mm was drilled and cells were injected unilaterally at 3 mm lateral to Bregma and at a depth of 4 mm. Injections were conducted using borosilicate capillary glass micropipettes (A-M Systems) pulled to a tip diameter of ˜[…]. Animals were allowed to recover with daily antibiotics and analgesics for up to a week and monitored post operatively for adverse events and signs of distress in compliance with relevant animal treatment guidelines.
FIG. 10 illustrates an orthotopic xenograft model. Rat C6 glioma cells are implanted unilaterally into the striatum of Sprague Dawley rats. Tumor engraftment and growth was rapid and morphology is consistent with human high grade gliomas.

[2] = test system: C6 glioma; experiment: Single vs. repeated PDT (rePDT) in orthotopic C6 glioma model, survival and tumor size; format: in vivo, Sprague Dawley rat
Source text: Animals were monitored daily for weight change and behavioral abnormalities ahead of xenograft induced mortality. Ethical termination via CO2 overdose was triggered in the following events: individual weight loss of greater than 20% in one day, extended cessation of motor behavior and loss of grooming; paralysis and lack of movement/lying on a side. After termination or death, individual rat brains were dissected and prepared for histological analysis by freezing in OCT compound (Tissue-Tek). Survival analysis was performed via the method of Kaplan-Meier.
(§1) The implants were secured in place by suturing the overlying skin to close the surgical site. Device operation was tested briefly before closure. Six hours prior to each PDT treatment, rats were injected with 100 mg/kg 5-ALA (Synchem UG & Co. KG) prepared in sterile PBS (1X, Hyclone) via tail vein or with a vehicle control. PDT treatment was conducted under 1.5-2.5% […] isoflurane/O2 general anesthesia. Wireless powering coils such as those disclosed herein were secured to each animal's head, and each PDT treatment delivered 2.5 mW/cm2 of light over 3,600 seconds for a total fluence of 9 J/cm^2 per treatment. Any of the other treatment parameters disclosed herein may be used.
Further experimentation was conducted to determine if repeated application of PDT treatment would have a cumulative effect on tumor growth and disease progression. […] If a single PDT treatment was at least 50% effective in destroying the tumor population, an inter-treatment interval of 2 days would maintain or diminish the tumor graft to at, or near starting levels. With this rationale in mind, PDT treatment was applied according to the schema shown in FIG. 12A with four treatments repeated every two days starting at day 4 after xenograft surgery.
On the day of treatment, animals received 5-ALA via tail vein injection and allowed to recover for 6 hours to allow uptake and expression of PPIX. PDT treatment was conducted under light general anaesthesia via halothane to reduce movement during PDT. […] This procedure was repeated at 2-day intervals for a total of four treatments.
FIG. 13 also illustrates survival curves for single vs repeat PDT treated animals. Sprague Dawley rats were implanted with c6 glioma cells and implanted with a wirelessly powered light source above the injection site as described. On treatment days (days 4, 6, 8, 10), animals were given the study drug 5-ALA as described and received PDT treatment. […] In contrast, 7 of 8 cohort 2 animals, which received PDT treatment on days 4, 6, 8, and 10, survived to day 70 at which point the experiment was stopped. Therefore, rePDT kills more of the tumor compared with a single treatment of PDT and increases survival time of the rodents.

[3] = test system: glioma cells; experiment: In vitro 3D hydrogel culture, PDT induced cell death of glioma cells; format: cell-based; details: glioma cells in 3D-hydrogel incubated with 5-ALA, illuminated with LED at 630 nm
Source text: An in vitro model of light penetration into tissue was established to determine the quantitative relationship between light penetrance PDT instigated cell death. The primary parameters for light input are illumination intensity and duration of illumination. The primary parameter for PDT instigated cell death is depth (or distance from the light source to the target treatment tissue), which directly attenuates light penetration into tissue.
To evaluate PDT for treatment of gliomas and brain cancers glioma cells were propagated in a hydrogel medium in a three-dimensional (3D) culture to mimic the cellular and optical environment of the brain. A commercial 3D culture system was used to set up the culture in a linear configuration such that a point source of light could be applied to one end of a closed culture in a cylinder form. The total cellular growth volume was 1 mm×1 mm×15 mm. A 630 nm LED light source that mimics the spectral characteristics and intensity of the any of the implantable devices disclosed herein was used to illuminate embedded glioma cells and to establish the effective PDT “kill radius.”
FIGS. 9A-9B show PDT induced cell death of glioma cells using a LED light source such as any of those disclosed herein. Glioma cells were embedded in a 3D-hydrogel, incubated with study drug 5-ALA, and illuminated with a light from a LED at 630 nm as shown in FIG. 9A. […]

[4] = test system: C6 glioma; experiment: Single application of PDT in orthotopic C6 glioma model (Ki67, TUNEL histology); format: in vivo, Sprague Dawley rat
Procedure: as §1
Test animals were sacrificed after 24 hours, and their brains were sectioned for histological examination. The proliferation marker Ki67 and the TUNEL assay (terminal deoxynucleotidyl transferase dUTP nick end labeling) indicative of apoptosis was used to quantify the PDT effect.
Test animals were sacrificed after 24 hours, and their brains were sectioned for histological examination. The proliferation marker Ki67 and the TUNEL assay indicative of apoptosis was used to quantify the PDT effect.

[5] = in vivo; cited from earlier work

Compound	PPIX signal in the tumor (conversion of 5-ALA to PPIX) [1]	tumor uptake of photosensitizer [1]	adverse effects after PDT treatment ([2]; 5-ALA tail vein 6 hours before PDT under general anaesthesia, four treatments at 2-day intervals)	mean survival ([2]; Cohort 1, PDT treatment only on day 4 (n=10)) [days]	time of mortality ([2]; control animals (control treatment = single PDT session)) [days]	tumor size ([2]; control animals (control treatment = single PDT session), necropsy)	median survival ([2]; control animals (n=10), Kaplan-Meier) [days]	animals living at the end of the experiment ([2]; rePDT) [%]	tumor cells by H&E staining ([2]; rePDT animals, histology)	Ki67 level ([2]; rePDT animals, histology, vs contralateral controls)	reduction in the tumor volume ([2]; rePDT vs control animals, gross estimates) [%]	animals living at the end of the experiment (day 70) ([2]; rePDT, PDT on days 4, 6, 8, 10, hydrochloride)	survival (day of termination of experiment) ([2]; repeated PDT (rePDT), four treatments every two days from day 4) [days]	effective "kill zone" (distance from the light source) [3]	PDT effect (Ki67 and TUNEL) ([4]; 100 mg/kg 5-ALA tail vein 6 h before wirelessly powered light, 9 J/cm^2, sacrificed after 24 hours)	PDT effect (Ki67 and TUNEL) ([4]; either component singly (5-ALA without light))	systemic clearance time of 5-ALA-induced PPIX [5] [h]
Cl.NCC(=O)CCC(=O)O [5-ALA, 5-amino-4-oxo-pentanoic acid hydrochloride]	Strong PPIX signal	takes up the photosensitizer drug 5-ALA	no adverse effects	~22	22 to 24	125-200 mm^3	21	89	trace amounts of tumor cells	low levels of Ki67	> 99.5	8 out of 9 and 7 of 8	≥ 70	6-8 mm	able to induce PDT	did not show the same effect	–
C=CC1=C(C)c2cc3[nH]c(cc4nc(cc5[nH]c(cc1n2)c(C)c5CCC(=O)O)C(CCC(=O)O)=C4C)c(C)c3C=C [PPIX, Protoporphyrin IX]	–	–	–	–	–	–	–	–	–	–	–	–	–	–	–	–	≤ 24
